Measured values from patent US10208033B2, “β-carboline, dihydro-β-carboline and tetrahydro-β-carboline alkaloid derivatives and preparation methods same and use in aspects of preventing and treating plant viruses, fungicides and insecticides” (NANKAI UNIVERSITY, priority 2013, dated 2019).

Tests used:
armyworms = type: in vivo; conditions: concentration 600 mg/kg
[1] = test system: Colletotrichum orbiculare; assay: Fungicidal (bactericidal) activity in vitro, PDA colony diameter; type: cell-based; conditions: 50 mg/kg
Alternaria solani = assay: as above; type: cell-based; conditions: 50 mg/kg
[2] = test system: tobacco mosaic virus (TMV); assay: Anti-TMV in vivo therapeutic effect; design: species or system tobacco mosaic virus (host Nicotiana tabacum L.cv.Xanthi NN)
Fusarium graminearumt = assay: microbe, parasite or virus in culture; type: cell-based; conditions: 50 mg/kg
potato late blight = assay: microbe, parasite or virus in culture; type: cell-based
[3] = test system: tobacco mosaic virus (TMV); assay: Anti-TMV in vivo protective effect; design: species or system tobacco mosaic virus (host Nicotiana tabacum L.cv.Xanthi NN)
Bipolaria maydis = assay: organism not typed; type: cell-based; conditions: 50 mg/kg
[4] = test system: tobacco mosaic virus (TMV); assay: Anti-TMV in vivo inactivation; design: species or system tobacco mosaic virus (host Nicotiana tabacum L.cv.Xanthi NN)
Cercospora arachidicola = assay: Fungicidal (bactericidal) activity in vitro, PDA colony diameter; type: cell-based; conditions: 50 mg/kg
corn borers = conditions: concentration 600 mg/kg
Rhizoctonia solani = assay: Fungicidal (bactericidal) activity in vitro, PDA colony diameter; type: cell-based; conditions: 50 mg/kg
Rhizoctonia cereali = assay: as above; type: cell-based; conditions: 50 mg/kg
mosquito larvae = assay: whole plant or invertebrate; conditions: 24 h
Procedure, shortened: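 Early fourth-instar Culex pipiens pallens larvae from an indoor colony, 10 per beaker, exposed to test compound at 5 ppm in water, diluted from a 1000 ppm acetone mother solution. Blank: water containing 0.5 mL test solvent.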

Phytophthora capsici = assay: Fungicidal (bactericidal) activity in vitro, PDA colony diameter; type: cell-based; conditions: 50 mg/kg
cotton bollworms = assay: whole plant or invertebrate; conditions: concentration 600 mg/kg
Method: Experimental method of cotton bollworms: feed and drug mixing method: measure 3 mL of prepared solution and add it to about 27 g of newly prepared feed, thereby obtaining needed concentration through dilution by 10 times.

cucumber fusarium wilt = assay: Fungicidal (bactericidal) activity in vitro, PDA colony diameter; type: cell-based; conditions: 50 mg/kg
Botrytis cinerea = assay: as above; type: cell-based; conditions: 50 mg/kg
Macrophoma kawatsukai = assay: as above; type: cell-based; conditions: 50 mg/kg
Sclerotinia scleotiorum = assay: as above; type: cell-based; conditions: 50 mg/kg
Fusarium fujikuroi = assay: as above; type: cell-based; conditions: 50 mg/kg
[5] = test system: tobacco mosaic virus (TMV); assay: Anti-TMV in vitro effect (half-leaf soaking); type: cell-based, tobacco mosaic virus (host Nicotiana tabacum L.cv.Xanthi NN)

| SMILES | Armyworm Mortality (%) (armyworms) | Bactericidal activity (%) Colletotrichum orbiculare [1] [%] | Bactericidal activity (%) Alternaria solani (Alternaria solani) [%] | Relative inhibition rate (%) In vivo therapy ([2]; treatment dose 100 μg/mL) [%] | Relative inhibition rate (%) In vivo therapy ([2]; treatment dose 500 μg/mL) [%] | Bactericidal activity (%) Fusarium graminearumt (Fusarium graminearumt) [%] | Bactericidal activity (%) potato late blight (potato late blight) [%] | Relative inhibition rate (%) In vivo protection ([3]; treatment dose 100 μg/mL) [%] | Bactericidal activity (%) Bipolaria maydis (Bipolaria maydis) [%] | Relative inhibition rate (%) In vivo inactivation ([4]; treatment dose 100 μg/mL) [%] | Relative inhibition rate (%) In vivo inactivation ([4]; treatment dose 500 μg/mL) [%] | Bactericidal activity (%) Cercospora arachidicola (Cercospora arachidicola) [%] | Corn borer Mortality (%) (corn borers) | Bactericidal activity (%) Rhizoctonia solani (Rhizoctonia solani) [%] | Bactericidal activity (%) Rhizoctonia cereali (Rhizoctonia cereali) [%] | Mosquito larvae Mortality (%) (mosquito larvae; concentration 10 mg/kg) | Bactericidal activity (%) Phytophthora capsici (Phytophthora capsici) [%] | Cotton bollworm Mortality (%) (cotton bollworms) | Bactericidal activity (%) Cucumber fusarium wilt (cucumber fusarium wilt) [%] | Bactericidal activity (%) Botrytis cinerea (Botrytis cinerea) [%] | other results |
| --- | --- | --- | --- | --- | --- | --- | --- | --- | --- | --- | --- | --- | --- | --- | --- | --- | --- | --- | --- | --- | --- |
| C[C@@H]1N[C@H](C(=O)NN=CC2CCCCC2)Cc2c1[nH]c1ccccc21 [Ic-25, (1S, 3S)—N′-(cyclohexylmethylene)-1-methyl-2,3,4,9-tetrahydropyridino [3,4-b] indol-3-formylhydrazine] | 45 | 24.0 | 19.0 | 30.4 | 62.8 | 30.8 | 17.4 | 25.7 | 36.0 | 36.3 | 75.8 | 0.0 | 55 | 5.6 | 29.7 | 100 | 9.1 | 20 | 4.5 | 66.7 | Relative inhibition rate (%) In vivo protection ([3]; treatment dose 500 μg/mL): 69.2%; Mosquito larvae Mortality (%) (mosquito larvae; concentration 5 mg/kg): 10%; Bactericidal activity (%) Macrophoma kawatsukai (Macrophoma kawatsukai): 33.3%; Bactericidal activity (%) Sclerotinia scleotiorum (Sclerotinia scleotiorum): 21.2%; Bactericidal activity (%) Fusarium fujikuroi (Fusarium fujikuroi): 41.2%; Relative inhibition rate (%) In vitro activity ([5]; treatment dose 100 μg/mL): 31.2%; Relative inhibition rate (%) In vitro activity ([5]; treatment dose 500 μg/mL): 59.6% |
| C[C@@H]1N[C@H](C(=O)NN=CC(C)(C)C)Cc2c1[nH]c1ccccc21 [Ic-26, (1S, 3S)—N′-(2,2-dimethylpropylidene)-1-methyl-2,3,4,9-tetrahydropyridino [3,4-b] indol-3-formylhydrazine] | 25 | 24.0 | 19.0 | 36.8 | 68.2 | 46.2 | 17.4 | 33.4 | 20.0 | 28.9 | 63.7 | 18.2 | 30 | 8.3 | 48.6 | 55 | 12.1 | 20 | 4.5 | 36.1 | Relative inhibition rate (%) In vivo protection ([3]; treatment dose 500 μg/mL): 66.8%; Bactericidal activity (%) Macrophoma kawatsukai (Macrophoma kawatsukai): 36.4%; Bactericidal activity (%) Sclerotinia scleotiorum (Sclerotinia scleotiorum): 15.4%; Bactericidal activity (%) Fusarium fujikuroi (Fusarium fujikuroi): 29.4%; Relative inhibition rate (%) In vitro activity ([5]; treatment dose 100 μg/mL): 27.5%; Relative inhibition rate (%) In vitro activity ([5]; treatment dose 500 μg/mL): 64.4% |
| CC(=NNC(=O)[C@@H]1Cc2c([nH]c3ccccc23)[C@H](C)N1)c1ccccc1 [Ic-27, (1S, 3S)—N′-(1-phenylethylidene)-1-methyl-2,3,4,9-tetrahydropyridino [3,4-b] indol-3-formylhydrazine] | 20 | 52.0 | 33.3 | 11.1 | 34.8 | 61.5 | 26.1 | 7.9 | 36.0 | 13.6 | 39.5 | 36.4 | 30 | 15.3 | 51.4 | 40 | 36.4 | 30 | 0.0 | 69.4 | Relative inhibition rate (%) In vivo protection ([3]; treatment dose 500 μg/mL): 37.2%; Bactericidal activity (%) Macrophoma kawatsukai (Macrophoma kawatsukai): 39.4%; Bactericidal activity (%) Sclerotinia scleotiorum (Sclerotinia scleotiorum): 11.5%; Bactericidal activity (%) Fusarium fujikuroi (Fusarium fujikuroi): 29.4%; Relative inhibition rate (%) In vitro activity ([5]; treatment dose 100 μg/mL): 9.2%; Relative inhibition rate (%) In vitro activity ([5]; treatment dose 500 μg/mL): 30.2% |
| C[C@@H]1N[C@H](C(=O)NN=C2CCCCC2)Cc2c1[nH]c1ccccc21 [Ic-29, (1S, 3S)—N′-cyclohexylidene-1-methyl-2,3,4,9-tetrahydropyridino [3,4-b] indol-3-formylhydrazine] | 20 | 32.0 | 19.0 | 10.9 | 41.9 | 46.2 | 26.1 | 14.3 | 32.0 | 12.8 | 33 | 18.2 | 15 | 15.3 | 48.6 | 45 | 12.1 | 25 | 0.0 | 52.8 | Relative inhibition rate (%) In vivo protection ([3]; in vivo): 46.2%; Bactericidal activity (%) Macrophoma kawatsukai (Macrophoma kawatsukai): 9.1%; Bactericidal activity (%) Sclerotinia scleotiorum (Sclerotinia scleotiorum): 7.7%; Bactericidal activity (%) Fusarium fujikuroi (Fusarium fujikuroi): 29.4%; Relative inhibition rate (%) In vitro activity ([5]; treatment dose 100 μg/mL): 8.6%; Relative inhibition rate (%) In vitro activity ([5]; treatment dose 500 μg/mL): 43.4% |
